In patent US10913744B2, “LRRK2 inhibitors and methods of making and using the same” (Dana-Farber Cancer Institute, Inc., priority 2015, dated 2021):
Where two headings read alike, the source gives them in different places.

Legend:
EGFR (G719S) = EGFR (G719S) (Homo sapiens (Human), UniProt P00533, G719S); experiment: KinomeScan; format: binding; conditions: 1 uM
[1] = target: EGFR (L747-E749del, A750P) (Homo sapiens (Human), UniProt P00533, A750P/DEL747-749); experiment: KinomeScan; format: binding; conditions: 1 uM
EGFR (S752-I759del) = EGFR (S752-I759del) (Homo sapiens (Human), UniProt P00533, DEL752-759); experiment: KinomeScan; format: binding; conditions: 1 uM
[2] = target: JAK2 (JH1domain-catalytic) (Homo sapiens (Human), UniProt O60674); experiment: KinomeScan; format: binding; conditions: 1 uM
JNK2 = JNK2 (Homo sapiens (Human), UniProt P45984); experiment: KinomeScan; format: binding; conditions: 1 uM
LATS2 = LATS2 (Homo sapiens (Human), UniProt Q9NRM7); experiment: KinomeScan; format: binding; conditions: 1 uM
MET = MET (Homo sapiens (Human), UniProt P08581); experiment: KinomeScan; format: binding; conditions: 1 uM
MKK7 = MKK7 (Homo sapiens (Human), UniProt O14733); experiment: KinomeScan; format: binding; conditions: 1 uM
ULK3 = ULK3 (Homo sapiens (Human), UniProt Q6PHR2); experiment: KinomeScan; format: binding; conditions: 1 uM
EPH-B1 = EPH-B1 (Homo sapiens (Human), UniProt P54762); experiment: Dundee profiling
Chain of EPH-B1 (P54762 18-984, species assumed): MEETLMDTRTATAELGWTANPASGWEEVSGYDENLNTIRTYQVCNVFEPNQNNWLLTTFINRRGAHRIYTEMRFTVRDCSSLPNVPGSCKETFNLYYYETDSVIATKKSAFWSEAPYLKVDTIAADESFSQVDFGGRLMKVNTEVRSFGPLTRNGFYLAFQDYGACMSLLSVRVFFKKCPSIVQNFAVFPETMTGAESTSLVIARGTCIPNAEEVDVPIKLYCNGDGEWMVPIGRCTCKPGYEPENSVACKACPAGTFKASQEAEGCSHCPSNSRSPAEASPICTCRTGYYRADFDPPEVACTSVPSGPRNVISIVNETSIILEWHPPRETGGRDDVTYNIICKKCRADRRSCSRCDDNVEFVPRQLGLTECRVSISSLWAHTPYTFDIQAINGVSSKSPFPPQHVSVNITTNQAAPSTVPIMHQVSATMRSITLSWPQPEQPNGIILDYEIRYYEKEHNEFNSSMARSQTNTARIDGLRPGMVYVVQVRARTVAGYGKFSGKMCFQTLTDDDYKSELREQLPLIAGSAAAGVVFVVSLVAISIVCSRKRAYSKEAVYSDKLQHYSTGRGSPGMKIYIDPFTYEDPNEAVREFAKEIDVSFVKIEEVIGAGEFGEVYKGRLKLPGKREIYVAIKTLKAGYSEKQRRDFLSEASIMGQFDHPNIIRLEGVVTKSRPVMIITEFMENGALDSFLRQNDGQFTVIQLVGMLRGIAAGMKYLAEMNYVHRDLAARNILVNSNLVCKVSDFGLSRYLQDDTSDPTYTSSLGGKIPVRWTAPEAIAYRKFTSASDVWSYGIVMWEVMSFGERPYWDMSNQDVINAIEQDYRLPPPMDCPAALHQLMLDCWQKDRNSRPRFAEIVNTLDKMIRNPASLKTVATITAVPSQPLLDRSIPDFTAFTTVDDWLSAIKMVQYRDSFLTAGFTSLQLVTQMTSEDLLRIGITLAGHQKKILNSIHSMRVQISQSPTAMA

Src = Src (Homo sapiens (Human), UniProt P12931); experiment: Dundee profiling
Chain of Src (P12931 whole entry, looked up, species assumed): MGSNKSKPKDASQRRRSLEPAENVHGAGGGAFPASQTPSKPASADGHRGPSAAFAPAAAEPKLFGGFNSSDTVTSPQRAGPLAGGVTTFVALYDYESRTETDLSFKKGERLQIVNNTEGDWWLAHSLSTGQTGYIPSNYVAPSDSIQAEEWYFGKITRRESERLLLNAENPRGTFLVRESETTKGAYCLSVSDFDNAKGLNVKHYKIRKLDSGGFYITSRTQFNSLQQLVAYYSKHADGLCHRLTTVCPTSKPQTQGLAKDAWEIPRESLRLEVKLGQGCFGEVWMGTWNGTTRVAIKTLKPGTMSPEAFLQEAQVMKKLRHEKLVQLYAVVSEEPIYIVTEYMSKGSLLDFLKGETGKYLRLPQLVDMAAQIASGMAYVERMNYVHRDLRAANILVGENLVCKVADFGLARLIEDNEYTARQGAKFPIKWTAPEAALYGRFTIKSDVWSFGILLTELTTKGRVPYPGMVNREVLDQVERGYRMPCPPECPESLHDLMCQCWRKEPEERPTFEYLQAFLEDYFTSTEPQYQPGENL

PAK2 = PAK2 (Homo sapiens (Human), UniProt Q13177); experiment: Dundee profiling
IRAK1 = IRAK1 (Homo sapiens (Human), UniProt P51617); experiment: Dundee profiling
Chain of IRAK1 (P51617 whole entry, looked up, species assumed): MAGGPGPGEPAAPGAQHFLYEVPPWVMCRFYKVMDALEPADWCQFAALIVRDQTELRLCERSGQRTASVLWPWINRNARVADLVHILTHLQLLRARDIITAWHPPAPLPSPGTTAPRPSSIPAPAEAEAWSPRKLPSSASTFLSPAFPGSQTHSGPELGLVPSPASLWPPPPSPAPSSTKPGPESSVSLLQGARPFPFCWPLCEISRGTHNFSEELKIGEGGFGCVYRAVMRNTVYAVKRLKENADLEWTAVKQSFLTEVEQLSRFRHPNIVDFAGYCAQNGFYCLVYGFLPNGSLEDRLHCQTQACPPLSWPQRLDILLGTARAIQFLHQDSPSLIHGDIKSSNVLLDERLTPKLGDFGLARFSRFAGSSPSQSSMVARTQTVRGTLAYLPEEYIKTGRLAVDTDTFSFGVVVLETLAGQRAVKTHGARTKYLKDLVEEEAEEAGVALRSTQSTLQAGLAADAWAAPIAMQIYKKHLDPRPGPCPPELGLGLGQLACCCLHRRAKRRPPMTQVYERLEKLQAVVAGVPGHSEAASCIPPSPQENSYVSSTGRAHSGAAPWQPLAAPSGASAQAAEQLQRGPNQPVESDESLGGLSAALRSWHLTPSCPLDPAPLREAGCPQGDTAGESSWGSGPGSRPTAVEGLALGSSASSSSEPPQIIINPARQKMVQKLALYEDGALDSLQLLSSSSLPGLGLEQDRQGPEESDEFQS

PDGFRA = PDGFRA (Homo sapiens (Human), UniProt P16234); experiment: Dundee profiling
TLK1 = TLK1 (Homo sapiens (Human), UniProt Q9UKI8); experiment: Dundee profiling
CDK9-Cyclin T1 = CDK9-Cyclin T1 (Homo sapiens (Human), UniProt P50750); experiment: Dundee profiling
EF2K = EF2K (Homo sapiens (Human), UniProt O00418); experiment: Dundee profiling
MKK2 = MKK2 (Homo sapiens (Human), UniProt P36507); experiment: Dundee profiling
CK1γ2 = CK1γ2 (Homo sapiens (Human), UniProt P78368); experiment: Dundee profiling
MAP4K3 = MAP4K3 (Homo sapiens (Human), UniProt Q8IVH8); experiment: Dundee profiling
Chain of MAP4K3 (Q8IVH8 whole entry, species assumed): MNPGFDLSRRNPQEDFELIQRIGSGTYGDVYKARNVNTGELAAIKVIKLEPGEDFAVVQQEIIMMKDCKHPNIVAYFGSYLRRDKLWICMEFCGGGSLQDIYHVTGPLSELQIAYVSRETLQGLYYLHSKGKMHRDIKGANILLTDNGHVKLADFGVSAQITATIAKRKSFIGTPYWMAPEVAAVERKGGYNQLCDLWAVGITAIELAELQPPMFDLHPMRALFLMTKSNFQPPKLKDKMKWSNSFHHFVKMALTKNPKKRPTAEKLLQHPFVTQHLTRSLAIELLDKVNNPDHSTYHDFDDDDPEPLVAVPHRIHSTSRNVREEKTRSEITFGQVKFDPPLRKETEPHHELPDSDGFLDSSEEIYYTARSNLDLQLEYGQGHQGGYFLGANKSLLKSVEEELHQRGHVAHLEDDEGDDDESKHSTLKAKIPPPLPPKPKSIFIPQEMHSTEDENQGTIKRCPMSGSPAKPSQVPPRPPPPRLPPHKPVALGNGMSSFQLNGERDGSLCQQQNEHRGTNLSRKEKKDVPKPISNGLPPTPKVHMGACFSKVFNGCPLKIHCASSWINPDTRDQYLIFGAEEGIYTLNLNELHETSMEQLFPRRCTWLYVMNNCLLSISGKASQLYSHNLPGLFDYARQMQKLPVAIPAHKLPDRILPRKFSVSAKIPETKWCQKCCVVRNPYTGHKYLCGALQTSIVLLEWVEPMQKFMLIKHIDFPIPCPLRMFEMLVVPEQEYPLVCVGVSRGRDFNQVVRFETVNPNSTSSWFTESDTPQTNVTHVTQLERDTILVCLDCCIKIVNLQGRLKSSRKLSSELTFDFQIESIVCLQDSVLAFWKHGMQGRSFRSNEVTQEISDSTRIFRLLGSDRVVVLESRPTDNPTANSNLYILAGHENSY

TESK1 = TESK1 (Homo sapiens (Human), UniProt Q15569); experiment: Dundee profiling
IRAK4 = IRAK4 (Homo sapiens (Human), UniProt Q9NWZ3); experiment: Dundee profiling
HER4 = HER4 (Homo sapiens (Human), UniProt Q15303); experiment: Dundee profiling
CK2 = experiment: Dundee profiling
GCK = GCK (Homo sapiens (Human), UniProt Q12851); experiment: Dundee profiling
Chain of GCK (Q12851 whole entry): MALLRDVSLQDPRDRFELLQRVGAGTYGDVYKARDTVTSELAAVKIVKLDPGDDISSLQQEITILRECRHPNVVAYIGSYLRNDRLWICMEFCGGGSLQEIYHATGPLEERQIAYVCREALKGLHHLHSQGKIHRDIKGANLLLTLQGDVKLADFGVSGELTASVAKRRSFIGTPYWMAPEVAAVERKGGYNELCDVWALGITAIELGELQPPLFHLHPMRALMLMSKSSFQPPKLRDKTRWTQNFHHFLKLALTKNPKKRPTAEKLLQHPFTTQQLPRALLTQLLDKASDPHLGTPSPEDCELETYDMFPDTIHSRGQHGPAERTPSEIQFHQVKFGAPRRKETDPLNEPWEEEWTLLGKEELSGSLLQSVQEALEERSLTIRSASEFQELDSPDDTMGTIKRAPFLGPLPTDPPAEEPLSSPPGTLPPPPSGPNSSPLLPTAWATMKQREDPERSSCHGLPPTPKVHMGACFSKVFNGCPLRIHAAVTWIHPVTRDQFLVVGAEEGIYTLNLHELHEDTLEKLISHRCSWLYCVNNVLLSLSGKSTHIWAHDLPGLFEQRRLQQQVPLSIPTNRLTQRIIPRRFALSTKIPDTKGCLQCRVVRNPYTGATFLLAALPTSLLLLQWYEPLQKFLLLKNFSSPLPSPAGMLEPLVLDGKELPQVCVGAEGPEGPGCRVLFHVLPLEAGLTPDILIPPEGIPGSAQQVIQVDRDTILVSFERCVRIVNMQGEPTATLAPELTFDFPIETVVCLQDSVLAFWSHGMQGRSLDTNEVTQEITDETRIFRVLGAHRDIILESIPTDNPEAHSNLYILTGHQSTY

MNK2 = MNK2 (Homo sapiens (Human), UniProt Q9HBH9); experiment: Dundee profiling
Chain of MNK2 (Q9HBH9 whole entry, species assumed): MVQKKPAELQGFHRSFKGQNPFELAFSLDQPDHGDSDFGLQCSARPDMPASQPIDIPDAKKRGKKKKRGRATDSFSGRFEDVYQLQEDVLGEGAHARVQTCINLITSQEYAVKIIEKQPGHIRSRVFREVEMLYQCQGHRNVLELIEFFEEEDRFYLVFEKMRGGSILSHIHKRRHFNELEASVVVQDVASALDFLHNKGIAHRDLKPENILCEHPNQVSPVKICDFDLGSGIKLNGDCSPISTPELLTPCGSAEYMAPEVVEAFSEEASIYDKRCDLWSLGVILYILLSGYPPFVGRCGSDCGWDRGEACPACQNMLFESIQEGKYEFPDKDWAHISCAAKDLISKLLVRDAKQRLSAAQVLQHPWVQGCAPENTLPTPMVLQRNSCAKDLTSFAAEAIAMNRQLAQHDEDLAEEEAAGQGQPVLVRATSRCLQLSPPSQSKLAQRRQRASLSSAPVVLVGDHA

NUAK1 = NUAK1 (Homo sapiens (Human), UniProt O60285); experiment: Dundee profiling
OSR1 = OSR1 (Homo sapiens (Human), UniProt O95747); experiment: Dundee profiling
CAMKKb = CAMKKb (Homo sapiens (Human), UniProt Q96RR4); experiment: Dundee profiling
DYRK1A = DYRK1A (Homo sapiens (Human), UniProt Q13627); experiment: Dundee profiling
PKD1 = PKD1 (Homo sapiens (Human), UniProt Q15139); experiment: Dundee profiling
JNK3 = JNK3 (Homo sapiens (Human), UniProt P53779); experiment: Dundee profiling
Chain of JNK3 (P53779 whole entry, species assumed): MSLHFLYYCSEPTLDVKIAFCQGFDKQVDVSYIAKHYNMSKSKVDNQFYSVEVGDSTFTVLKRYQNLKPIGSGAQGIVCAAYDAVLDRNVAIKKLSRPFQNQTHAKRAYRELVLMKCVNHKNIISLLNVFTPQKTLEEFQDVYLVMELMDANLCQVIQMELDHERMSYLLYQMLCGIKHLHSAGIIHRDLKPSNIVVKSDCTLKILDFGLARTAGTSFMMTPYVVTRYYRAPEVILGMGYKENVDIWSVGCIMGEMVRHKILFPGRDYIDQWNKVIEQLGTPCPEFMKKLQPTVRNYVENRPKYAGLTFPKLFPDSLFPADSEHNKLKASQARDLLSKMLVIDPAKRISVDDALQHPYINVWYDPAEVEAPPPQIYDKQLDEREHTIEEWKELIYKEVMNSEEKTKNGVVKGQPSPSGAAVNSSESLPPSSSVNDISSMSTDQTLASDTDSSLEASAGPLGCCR

IR = IR (Homo sapiens (Human), UniProt P06213); experiment: Dundee profiling
TSSK1 = TSSK1 (Homo sapiens (Human), UniProt Q9BXA7); experiment: Dundee profiling
[3] = read-out: percent remaining enzymatic activity, I1, 1 μM
[4] = read-out: percent remaining enzymatic activity, I10
[5] = read-out: percent remaining enzymatic activity

## CNc1nc(Nc2ccc(C(=O)N3CCOCC3)cc2OC)nc2[nH]cc(Cl)c12 [Compound 18, (4-((5-chloro-4-(methylamino)-7H-pyrrolo[2,3-d]pyrimidin-2-yl)amino)-3-methoxyphenyl)(morpholino)methanone]
EGFR (G719S)
  KinomeScan value: 88
[1]
  KinomeScan value: 81
EGFR (S752-I759del)
  KinomeScan value: 97
[2]
  KinomeScan value: 100
JNK2
  KinomeScan value: 78
LATS2
  KinomeScan value: 93
MET
  KinomeScan value: 97
MKK7
  KinomeScan value: 100
ULK3
  KinomeScan value: 96
EPH-B1; [3]
  remaining activity at 1 µM: 119%
EPH-B1; [4]
  remaining activity at 1 µM: 126%
Src; [3]
  remaining activity at 1 µM: 110%
Src; [4]
  remaining activity at 1 µM: 102%
PAK2; [3]
  remaining activity at 1 µM: 110%
PAK2; [4]
  remaining activity at 1 µM: 102%
IRAK1; [3]
  remaining activity at 1 µM: 109%
IRAK1; [4]
  remaining activity at 1 µM: 92%
PDGFRA; [3]
  remaining activity at 1 µM: 109%
PDGFRA; [4]
  remaining activity at 1 µM: 89%
TLK1; [3]
  remaining activity at 1 µM: 106%
TLK1; [4]
  remaining activity at 1 µM: 105%
CDK9-Cyclin T1; [3]
  remaining activity at 1 µM: 105%
CDK9-Cyclin T1; [4]
  remaining activity at 1 µM: 91%
EF2K; [3]
  remaining activity at 1 µM: 105%
EF2K; [4]
  remaining activity at 1 µM: 102%
MKK2; [3]
  remaining activity at 1 µM: 101%
MKK2; [4]
  remaining activity at 1 µM: 72%
CK1γ2; I10
  percent remaining enzymatic activity: 45%
CK1γ2; [5]
  remaining activity at 1 µM: 100%
MAP4K3; I10
  percent remaining enzymatic activity: 41%
MAP4K3; [5]
  remaining activity at 1 µM: 98%
TESK1; [3]
  remaining activity at 1 µM: 97%
TESK1; [4]
  remaining activity at 1 µM: 95%
IRAK4; I10
  percent remaining enzymatic activity: 82%
IRAK4; [5]
  remaining activity at 1 µM: 95%
HER4; [3]
  remaining activity at 1 µM: 94%
HER4; [4]
  remaining activity at 1 µM: 71%
CK2; I1, 1 μM
  percent remaining enzymatic activity: 94%
CK2; I10
  percent remaining enzymatic activity: 70%
GCK; [3]
  remaining activity at 1 µM: 86%
GCK; [4]
  remaining activity at 1 µM: 41%
MNK2; [3]
  remaining activity at 1 µM: 75%
MNK2; [4]
  remaining activity at 1 µM: 25%
NUAK1; I10
  percent remaining enzymatic activity: 17%
NUAK1; [5]
  remaining activity at 1 µM: 75%
OSR1; [3]
  remaining activity at 1 µM: 61%
OSR1; [4]
  remaining activity at 1 µM: 12%
CAMKKb; [3]
  remaining activity at 1 µM: 50%
CAMKKb; [4]
  remaining activity at 1 µM: 16%
DYRK1A; [3]
  remaining activity at 1 µM: 49%
DYRK1A; [4]
  remaining activity at 1 µM: 8%
PKD1; [3]
  remaining activity at 1 µM: 47%
PKD1; [4]
  remaining activity at 1 µM: 7%
JNK3; I10
  percent remaining enzymatic activity: 9%
JNK3; [5]
  remaining activity at 1 µM: 29%
IR; [3]
  remaining activity at 1 µM: 21%
IR; [4]
  remaining activity at 1 µM: 10%
TSSK1; [3]
  remaining activity at 1 µM: 14%
TSSK1; [4]
  remaining activity at 1 µM: 7%
